Data from PubChem BioAssay (NCI).
Where “and” joins values, the source holds several entries; their conditions need not be identical. Equal values may be shown once.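 Following 48 hours of exposure in 96-well plates, responses at five concentrations were used to interpolate endpoints linearly. The concentration for 50% growth inhibition is given as GI50. TGI: concentration producing complete growth inhibition.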

Test system: MDA-MB-468 breast
Assay: DTP human tumour cell line panel, 48 h

**Q.** With `COc1cc(Nc2cn[nH]c2-c2ccc(Cl)cc2)cc(OC)c1OC` as the compound, how does the GI50 read?
**A.** The GI50 was 1600 nM.

**Q.** And the TGI?
**A.** The TGI was 6400 nM.

**Q.** With `COc1ccc(C2CC(c3cccc(Nc4ccncc4)c3)=NN2c2cc(Cl)cc(Cl)c2)cc1` (configuration not stated) as the compound, how does the GI50 read?
**A.** The GI50 was 1630 nM.

**Q.** What about the TGI of the same compound?
**A.** The TGI was 3290 nM.

**Q.** For `CCC[CH2][Sn]([CH2]CCC)([CH2]CCC)[O]C(=O)CC`, which GI50 is on record?
**A.** Its GI50 is 127 nM.

**Q.** And the TGI?
**A.** The TGI was 258 nM.

**Q.** Which GI50 does the source give for `CC/C(=C(/c1ccc(OCCN(C)C)cc1)c1ccc(OC(=O)CCCCC(=O)c2c(C)[nH]c(/C=C3\N=C(c4ccc[nH]4)C=C3OC)c2C)cc1)c1ccccc1` here?
**A.** The GI50 was 2470 nM.

**Q.** What about the TGI of the same compound?
**A.** The TGI was 14700 nM.

**Q.** How did the GI50 turn out when `CC1OC2CC(=O)OC2C2=C1C(=O)c1c(O)cccc1C2=O` (configuration not stated) was run?
**A.** Its GI50 is 20.8 nM.

**Q.** What about the TGI of the same compound?
**A.** The TGI was 52.5 nM.

**Q.** `Ic1ccc(Nc2nc3nonc3nc2Nc2ccc(I)cc2)cc1` was tested. Which GI50 did it give?
**A.** Its GI50 is 174 nM.

**Q.** And the TGI?
**A.** Its TGI is 1690 nM.

**Q.** Which GI50 does the source give for `COc1cc(C2c3cc4c(cc3OC(N3CCCC3)C2C)OCO4)cc(OC)c1O` (configuration not stated) here?
**A.** Its GI50 is 17500 nM.

**Q.** And the TGI?
**A.** The TGI was greater than 100000 nM.

**Q.** How did the GI50 turn out when `C=C(F)C(=O)N1CCN(c2nc(OC[C@@H]3CCCN3C)nc3c2CCN(c2cccc4cccc(Cl)c24)C3)C[C@@H]1CC#N` was run?
**A.** Its GI50 is 1220 nM.

**Q.** What about the TGI of the same compound?
**A.** The TGI was 2580 nM.

**Q.** How did the GI50 turn out when `C[C@H]1c2cccc(O)c2C(O)=C2C(=O)[C@]3(O)C(O)=C(C(N)=O)C(=O)[C@@H](N(C)C)[C@@H]3[C@@H](O)[C@@H]21` was run?
**A.** Its GI50 is 2050 nM.

**Q.** And the TGI?
**A.** The TGI was 6440 nM.

**Q.** With `CC[C@]12C=CCN3CC[C@@]4(c5ccc(OC)cc5N(C)[C@H]4[C@@](O)(C(=O)OC)[C@@H]1OC(=O)CCC[P+](c1ccccc1)(c1ccccc1)c1ccccc1)[C@@H]32` as the compound, how does the GI50 read?
**A.** The GI50 was 123 nM and 217 nM.

**Q.** What about the TGI of the same compound?
**A.** Its TGI is 377 nM and 653 nM.

**Q.** Which results are given for `O=C1NC(=Nc2ccccc2)S/C1=C\c1ccc2ncccc2c1`?
**A.** GI50: 2060 nM; TGI: > 25000 nM

**Q.** How did the GI50 turn out when `NCCCNc1nc2ccccc2c2c(=O)c3cc(OC(F)(F)F)ccc3sc12` was run?
**A.** The GI50 was 1760 nM.

**Q.** And the TGI?
**A.** The TGI was 3420 nM.

**Q.** Which results are given for `COCCOc1cc(F)c2c(Nc3ccc(NC(=O)Cn4cc(C(C)C)nn4)cc3)ncnc2c1`?
**A.** GI50: 57100 nM; TGI: > 100000 nM

**Q.** What does the source list for `CCN1CCN(c2ccc(Nc3cc(N(C)C(=O)Nc4c(Cl)c(OC)cc(OC)c4Cl)ncn3)cc2)CC1`?
**A.** GI50: 3010 nM; TGI: 11700 nM

**Q.** How did the GI50 turn out when `O=C(OCc1ccc2cccc(O)c2n1)N1CCN(C(=O)c2cc3cc(F)ccc3[nH]2)CC1` was run?
**A.** The GI50 was 1510 nM.

**Q.** What about the TGI of the same compound?
**A.** Its TGI is 3280 nM.

**Q.** `Cc1ccc2c(n1)C(=O)c1[nH]c3ccccc3c1C2=O` was tested. Which GI50 did it give?
**A.** The GI50 was 510 nM.

**Q.** What about the TGI of the same compound?
**A.** Its TGI is 3300 nM.

**Q.** `CNCCCn1cc(C2=C(c3cn(C)c4ccccc34)C(=O)NC2=O)c2ccccc21` was tested. Which GI50 did it give?
**A.** The GI50 was 3590 nM.

**Q.** What about the TGI of the same compound?
**A.** Its TGI is 7330 nM.

**Q.** For `Cn1cc(C2=C(c3ccc4ccccc4c3)C(=O)NC2=O)c2ccccc21`, which GI50 is on record?
**A.** The GI50 was 6240 nM.

**Q.** What about the TGI of the same compound?
**A.** The TGI was greater than 25000 nM.

**Q.** Which results are given for `Oc1ccc(Cl)cc1Cc1cc(Cl)cc(Cl)c1O`?
**A.** GI50: 2790 nM; TGI: 9410 nM

**Q.** For `O=S(=O)(Nc1cc(F)cc(Cl)c1)c1ccc(-c2cnc(C3CC3)o2)cc1`, which GI50 is on record?
**A.** The GI50 was 491 nM.

**Q.** And the TGI?
**A.** The TGI was 6780 nM.

**Q.** Which results are given for `CC(SC(C)C(=O)N/N=C/c1cccc(Cl)c1)C(=O)N/N=C\c1cccc(Cl)c1` (configuration not stated)?
**A.** GI50: 21700 nM; TGI: 52900 nM

**Q.** How did the GI50 turn out when `C#Cc1cccc(Nc2ncnc3cc(OC)c(OCCCCCCC(=O)NO)cc23)c1` was run?
**A.** Its GI50 is 7.53 nM.

**Q.** What about the TGI of the same compound?
**A.** Its TGI is 81.4 nM.

**Q.** Which results are given for `Cc1c2cccnc2c(C)c2c1c1cc(CO)ccc1n2C`?
**A.** GI50: 183 nM; TGI: 561 nM

**Q.** With `COc1ncnc(C2CC2)c1-c1ncc2cnn(Cc3ccc(-c4nc(C(F)(F)F)cn4C(C)C)cc3)c2n1` as the compound, how does the GI50 read?
**A.** The GI50 was 3770 nM.

**Q.** And the TGI?
**A.** Its TGI is 38300 nM.

**Q.** How did the GI50 turn out when `Cn1c(=O)c2c(nc(Nc3cc(=O)[nH]c(=O)[nH]3)n2Cc2ccccc2)n(C)c1=O` was run?
**A.** The GI50 was 54800 nM.

**Q.** What about the TGI of the same compound?
**A.** The TGI was greater than 100000 nM.

**Q.** With `COc1cc(C(=O)c2cc(C)c3[nH]c4ccc(Cl)cc4c3c2C)cc(OC)c1OC` as the compound, how does the GI50 read?
**A.** Its GI50 is 38.5 nM.

**Q.** And the TGI?
**A.** Its TGI is 4840 nM.

**Q.** For `Cc1ccc(C(SCC(N)C(=O)O)(c2ccccc2)c2ccc(C)cc2)cc1` (configuration not stated), which GI50 is on record?
**A.** The GI50 was 118 nM.

**Q.** And the TGI?
**A.** The TGI was 533 nM.

**Q.** Which GI50 does the source give for `CC(C)c1ccc(Nc2ccc3c(OCCCN4CCN(C)CC4)cccc3n2)cc1` here?
**A.** Its GI50 is 12300 nM.

**Q.** And the TGI?
**A.** The TGI was 26000 nM.

**Q.** How did the GI50 turn out when `O=[N+]([O-])c1ccc(C=C2C(Cl)=C(Cl)C(Cl)=C2Cl)cc1` was run?
**A.** The GI50 was 1700 nM.

**Q.** And the TGI?
**A.** Its TGI is 3350 nM.

**Q.** For `COc1cc2c(cc1OC)C(Sc1ccc(C)cc1)c1c(nc(N)c(C#N)c1N)O2` (configuration not stated), which GI50 is on record?
**A.** Its GI50 is 1160 nM.

**Q.** And the TGI?
**A.** The TGI was 2500 nM.

**Q.** Which results are given for `O=C(Nc1ccc(OS(=O)(=O)c2ccccc2)cc1)C12CC3CC(CC(C3)C1)C2`?
**A.** GI50: 3800 nM; TGI: > 100000 nM
